Test results published in ChEMBL document CHEMBL4325915, “Synthesis of zwitterionic N-chlorohydantoins for antibacterial applications” (2018).

Experiments:
Assay type in all cases: functional
Staphylococcus aureus [1] = experiment: Bactericidal activity against Staphylococcus aureus ATCC 25923 assessed as reduction in bacterial colonies preincubated for 5 mins followed by bacterial plating on Luria-Bertani plates and measured after 18 to 24 hrs relative to control; design: concentration or dose not given beside the values
Staphylococcus aureus [2] = experiment: Bactericidal activity against Staphylococcus aureus ATCC 25923 assessed as log reduction in bacterial colonies preincubated for 5 mins followed by bacterial plating on Luria-Bertani plates and measured after 18 to 24 hrs relative to control
Staphylococcus aureus [3] = experiment: Bactericidal activity against Staphylococcus aureus ATCC 25923 assessed as reduction in bacterial colonies preincubated for 10 mins followed by bacterial plating on Luria-Bertani plates and measured after 18 to 24 hrs relative to control; design: concentration or dose not given beside the values
Staphylococcus aureus [4] = experiment: Bactericidal activity against Staphylococcus aureus ATCC 25923 assessed as log reduction in bacterial colonies preincubated for 10 mins followed by bacterial plating on Luria-Bertani plates and measured after 18 to 24 hrs relative to control
Escherichia coli [5] = experiment: Bactericidal activity against Escherichia coli ATCC 25922 assessed as reduction in bacterial colonies preincubated for 5 mins followed by bacterial plating on Luria-Bertani plates and measured after 18 to 24 hrs relative to control; design: concentration or dose not given beside the values
Escherichia coli [6] = experiment: Bactericidal activity against Escherichia coli ATCC 25922 assessed as log reduction in bacterial colonies preincubated for 5 mins followed by bacterial plating on Luria-Bertani plates and measured after 18 to 24 hrs relative to control
Escherichia coli [7] = experiment: Bactericidal activity against Escherichia coli ATCC 25922 assessed as reduction in bacterial colonies preincubated for 10 mins followed by bacterial plating on Luria-Bertani plates and measured after 18 to 24 hrs relative to control; design: concentration or dose not given beside the values
Escherichia coli [8] = experiment: Bactericidal activity against Escherichia coli ATCC 25922 assessed as log reduction in bacterial colonies preincubated for 10 mins followed by bacterial plating on Luria-Bertani plates and measured after 18 to 24 hrs relative to control
Staphylococcus aureus [9] = experiment: Bactericidal activity against Staphylococcus aureus ATCC 25923 assessed as reduction in bacterial colonies using initial inoculum of 4 x 10^7 CFU/ml preincubated for 5 mins followed by bacterial plating on Luria-Bertani plates and measured after 18 to 24 hrs relative to control; design: scale not given: the % may be the effect or the level left

| Structure (SMILES) | Activity (Staphylococcus aureus [1]) | log(activity) (Staphylococcus aureus [2]) | Activity (Staphylococcus aureus [3]) | log(activity) (Staphylococcus aureus [4]) | Activity (Escherichia coli [5]) | log(activity) (Escherichia coli [6]) | Activity (Escherichia coli [7]) | log(activity) (Escherichia coli [8]) | Activity (Staphylococcus aureus [9]) |
| --- | --- | --- | --- | --- | --- | --- | --- | --- | --- |
| CC1(C)C(=O)N(CCC[N+](C)(C)CC(=O)[O-])C(=O)N1Cl | 34.3% | 0.18 | 100% | 6.83 | 86.7% | 0.88 | 100% | 6.63 | 15% |
| CC1(C)NC(=O)N(CCC[N+](C)(C)C)C1=O.[Cl-] | 0% | 0 | 0% | 0 | 0% | 0 | 0% | 0 | – |
| CC1(C)C(=O)N(CCC[N+](C)(C)CCCS(=O)(=O)[O-])C(=O)N1Cl | 19.8% | 0.1 | 49.1% | 0.29 | 25.1% | 0.13 | 89.9% | 1 | – |
| CC1(C)NC(=O)N(CCC[N+](C)(C)CCCS(=O)(=O)[O-])C1=O | 0% | 0 | 0% | 0 | 0% | 0 | 0% | 0 | – |
| CC1(C)NC(=O)N(CCO)C1=O | 0% | 0 | 0% | 0 | 0% | 0 | 0% | 0 | – |
| CC1(C)C(=O)N(CCO)C(=O)N1Cl | 100% | 6.83 | 100% | 6.83 | 100% | 6.63 | 100% | 6.63 | 99.8% |
| CC1(C)C(=O)N(CCC[N+](C)(C)C)C(=O)N1Cl.[Cl-] | 11.8% | 0.05 | 75% | 0.6 | 42.2% | 0.24 | 99.3% | 2.18 | – |
| CC1(C)NC(=O)N(CCC[N+](C)(C)CC(=O)[O-])C1=O | 0% | 0 | 0% | 0 | 0% | 0 | 0% | 0 | – |
